The text below walks through data of patent publication US20160345855A1, “METHODS OF TREATING BRAIN DISORDERS OR IDENTIFYING BIOMARKERS RELATED THERETO” (NORTHWESTERN UNIVERSITY, priority 2013, published 2016).

“Also recorded” adds a separate entry of the source. Peptide text beside a SMILES is read from it.

Series [1] concerns NMDAR. To be noted: cited from earlier work; for side effects: human clinical studies; for Hamilton Depression Rating Score: patients suffering with refractory depression.
Series [2] concerns NMDAR. To be noted: in vivo; cited from earlier work.
Series [3] relates to healthy young adults. The experiment in a line: fMRI (BOLD) during item category association task, Example 2 (randomized, single-blind, parallel group). Type of series: in vivo, humans. To be noted: single IV 5 mg/kg. An excerpt:
We investigated whether a single IV administration of GLYX-13 compared to placebo changed functional activation among healthy young adults performing a learning and memory task while undergoing fMRI.
The inclusion criteria for adult subjects participating in the study were as follows (i) 18-40 years of age; (ii) estimated IQ within what is considered to be the normal range (80-120); and (iii) no personal medical, neurologic, or psychiatric history, or reported history of psychiatric illness among first degree relatives.
After initial (Visit 1), patients were randomized to either single IV administration of GLYX-13 (5 mg/kg) or placebo on subsequent visit (Visit 2). fMRI studies started within 20 minutes post-infusion. Subjects returned approximately one week after Visit 2 to complete behavioral tasks in scanner and assess any adverse effects.
Item Category Association Task (See, e.g., Onur O A, Schlaepfer T E, Kukolja J, Bauer A, Jeung H, Patin A, Otte D-M, Shah N J, Maier W, Kendrick K M, Fink G R, Hurleman R (2010).
The N-methyl-D-aspartate receptor co-agonist D-Cycloserine facilitates declarative learning and hippocampal activity in humans. Biol. Psychiatry, 67, 1205). Subjects were asked to learn arbitrary group membership (A or B) of 3-digit numbers. Visual feedback was provided immediately following choice (button press) to indicate correct item category association. There were eight category memberships to be learned, which were presented over eight cycles (i.e., 7 repetitions) for a total of 64 trials per run; three sets of learning runs (each with different 3-digit number sets. See FIG. 3.
3T TIM Trio system (Siemens Medical Systems) with 32 channel coil. […]

Series [4] relates to healthy young adults. The experiment in a line: fMRI (BOLD) during item category association task, Example 1. Type of series: in vivo, humans. To be noted: IV-injection of 5 mg. As to the method: GLYX-13 was used to investigate whether this compound changed functional activation in hippocampal and related learning regions healthy young adults.
Twenty-four healthy individuals underwent functional magnetic resonance imaging (fMRI) after randomization to IV-injection of 5 mg of GLYX-13 (n=12) or placebo (n=12). Groups were matched on demographic factors, estimated IQ, and dose volume. While undergoing scanning, subjects performed an item category association task in which they learned over repeated cycles which of two categories a series of numbers were assigned. Change in blood-oxygen level dependent (BOLD) activity was measured during correctly performed trials, and differences in activation between groups were compared across learning cycles.

With `CNC1(c2ccccc2Cl)CCCCC1=O` (stereo not shown) [ketamine], in the series with NMDAR [1], the side effects entry is listed as “severe” and the “Hamilton Depression Rating Score” value is given as “significant reductions”.

For `C[C@@H]([C@@H](O)c1ccc(O)cc1)N1CCC(O)(c2ccccc2)CC1` [CPC-101.606], in the series on NMDAR [1], the side effects entry is on record as “severe” and the “Hamilton Depression Rating Score” value is “significant reductions”.

As to `C[C@@H](O)[C@H](N)C(=O)N1CCC[C@H]1C(=O)N1CCC[C@H]1C(=O)N[C@H](C(N)=O)[C@@H](C)O` [GLYX-13, L-threonyl-L-prolyl-L-prolyl-L-threonine amide] (H-TPPT-NH2), in the series on NMDAR [2], the antidepressant activity entry is “rapid-acting, robust, and sustained antidepressant activity”; the “nootropic, neuroprotective, antinociceptive and cognitive activity” value is “exhibits nootropic, neuroprotective and antinociceptive activity, and enhances learning, memory and cognition in vivo”; the psychotomimetic side effects result is reported as “lack the pyschotomimetic side effects”. For the same compound, the “number of identified regions with significant group by cycle interaction effects on extracted mean % signal change” value in the series with healthy young adults [3] (FIGS. 7A-7F) was “six”. Further, the “behavioral task performance (learning effect across cycle)” value with healthy young adults [3] (compared with Placebo, FIG. 5) was “robust and comparable learning effect across cycle”. Besides, in the series with healthy young adults [3] (correct trials, FIGS. 7A-7F, 5 mg/kg), the “BOLD activation / extracted mean % signal change vs. Placebo” value is “enhanced activation; also recorded: enhanced BOLD signal change”. Moreover, in the series on healthy young adults [4], the “regions in which Placebo demonstrated greater activation compared to GLYX-13” value is given as “no regions”. Moreover, the “BOLD activation over learning cycles compared to Placebo” value in the series on healthy young adults [4] (n=12 per group, correctly performed trials, hippocampus, parahippocampal gyrus, amygdala, superior temporal, middle frontal, inferior frontal gyri) was “enhanced activation over learning cycles in several learning and memory regions”. The “task accuracy over successive cycles” value in the series with healthy young adults [4] (both groups (GLYX-13 and placebo)) is reported as “increased task accuracy over successive cycles”.
